Assay [1] concerns the target T1, Human V1b receptor (Homo sapiens, UniProt P47901).
T1 sequence (P47901 1-424): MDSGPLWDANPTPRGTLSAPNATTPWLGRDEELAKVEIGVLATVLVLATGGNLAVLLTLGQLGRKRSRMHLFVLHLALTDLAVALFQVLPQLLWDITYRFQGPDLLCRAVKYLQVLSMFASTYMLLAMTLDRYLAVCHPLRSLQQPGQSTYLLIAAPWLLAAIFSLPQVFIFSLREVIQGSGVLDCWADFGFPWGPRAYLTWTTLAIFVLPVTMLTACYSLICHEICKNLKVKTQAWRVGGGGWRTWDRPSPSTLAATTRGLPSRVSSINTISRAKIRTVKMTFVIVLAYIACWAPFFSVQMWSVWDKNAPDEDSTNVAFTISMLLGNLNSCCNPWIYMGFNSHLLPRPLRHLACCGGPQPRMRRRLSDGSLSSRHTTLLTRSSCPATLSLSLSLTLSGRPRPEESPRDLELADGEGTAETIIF
Briefly: Binding test for V1b receptor ([3H]AVP displacement, crude membrane preparation). The arrangement: expressed in transfected cells; host or cells: 293FT cells (transient expression). The note with it: [3H]AVP 0.4 to 1 nmol/L; membranes of 293FT cells transiently expressing human V1b receptor; room temperature, 60 minutes. The method, then:
Human V1b receptor was transiently expressed in 293FT cells, which were then recovered and homogenated in a 15 mmol/L tris-hydrochloric acid buffer (pH 7.4 and containing 2 mmol/L magnesium chloride, 0.3 mmol/L ethylenediaminetetracetic acid, and 1 mmol/L glycol ether diaminetetraacetic acid). The resulting homogenate was centrifuged at 50,000×g at 4 ° C. for 20 minutes. The precipitate was resuspended in a 75 mmol/L tris-hydrochloric acid buffer (pH 7.4 and containing 12.5 mmol/L magnesium chloride, 0.3 mmol/L ethylenediaminetetracetic acid, 1 mmol/L glycol ether diaminetetraacetic acid, and 250 mmol/L sucrose) to give a crude membrane preparation, which was stored at −80° C. until the binding test was initiated. In the binding test, the crude membrane preparation was diluted with a 50 mmol/L tris-hydrochloric acid buffer (pH 7.4 and containing 10 mmol/L magnesium chloride and 0.1% bovine serum albumin) and mixed with each test compound and [^3H]AVP (final concentration: 0.4 to 1 nmol/L), followed by incubation at room temperature for 60 minutes. The test compound was serially diluted with DMSO so that it would have final concentrations of 0.01 nmol/L to […] at the time of mixing. After the incubation, the mixture was suction filtered through a GF/C filter that was preliminarily impregnated with 0.3% polyethyleneimine. The GF/C filter was dried and after adding a scintillator, the residual radioactivity on the filter was measured using TopCount (PerkinElmer Inc.). The radioactivity in the presence of unlabeled AVP at 10 μmol/L was defined as 0%, and the radioactivity in the absence of unlabeled AVP was defined as 100%. A dose-response curve was plotted from radioactivities in the presence of a test compound at various concentrations, and the 50% inhibitory concentration (IC50 value) of the test compound was calculated.

Assay [2] has as its target T1, Human V1b receptor. Briefly: Measurement of V1b receptor antagonistic activity (AVP-induced Fluo-4 fluorescence, FDSS). Format: cell-based. The arrangement: expressed in transfected cells. The conditions noted are these: CHO cells stably expressing human V1b receptor; AVP 2.5 nmol/L; 30 minutes preincubation with test compound. The protocol: CHO cells so modified as to express human V1b receptor in a stable manner were cultured in Ham's F-12 medium (containing 10% FBS and 0.5 mg/mL Geneticin). On the day before the test, seeding was conducted at a density of 20,000 cells/well in a 96-well poly-D-lysine coated black plate. On the day of the test, the culture medium was removed, and a loading solution (1×HBSS, 10 mmol/L HEPES, 0.1% bovine serum albumin, 1.25 mmol/L Probenecid, 0.02% Pluronic F-127, 1.5 μmol/L Fluo-4-AM, pH 7.4) was added to each well, followed by incubation in a CO2 incubator for an hour. After the incubation, the loading solution was removed. A test solution (1×HBSS, 10 mmol/L HEPES, 0.1% bovine serum albumin, 1.25 mmol/L Probenecid, pH 7.4) containing any one of test compounds was added to wells, followed by incubation in a CO2 incubator for 30 minutes. The test compound was serially diluted with DMSO so that it would have final concentrations of 0.1 nmol/L to 1 μmol/L at the time of assaying. After the incubation, fluorescence intensity levels were measured and AVP added by means of FDSS (Hamamatsu Photonics K.K.); AVP was added to give a final concentration of 2.5 nmol/L at the time of assaying. […] The fluorescence level in a well to which neither test compound nor AVP was added was defined as 0%, and the fluorescence level in a well to which only AVP was added and no test compound was added was defined as 100%. A dose-response curve was plotted from fluorescence levels after the addition of AVP in the presence of a test compound at various concentrations, and the 50% inhibitory concentration (IC50 value) of the compound was calculated.

One may read the IC50 as the point on the concentration scale where inhibition reaches its midpoint. The low end stands for greater potency, the high end for weaker potency. On to `CC(C)NC(=O)Cn1c(-c2ccc(F)c(Cl)c2)cc2cc(OCCCN3CCOCC3)ccc21` [Example B-5, 2-{2-(3-chloro-4-fluorophenyl)-5-[3-(morpholin-4-yl)propoxy]-1H-indol-1-yl}-N-isopropyl acetamide], for which the 50% inhibitory concentration (IC50) on Human V1b receptor [1] was 8.9 nM; at Human V1b receptor [2], 8 nM.
For `CC(C)NC(=O)Cn1c(-c2cccc(Cl)c2)nc2cc(OCCCN3CCCCC3)ccc21` [Example A-1, 2-{2-(3-chlorophenyl)-5-[3-(piperidin-1-yl)propoxy]-1H-benzimidazol-1-yl}-N-isopropyl acetamide], in that order: 14.4 nM and 212 nM.

Values taken from US20150045551A1, “FUSED AZOLE DERIVATIVE” (TAISHO PHARMACEUTICAL CO., LTD, priority 2012, published 2015).
